What all share (settings): read-out: pI50 (converted)
The subject of experiment [1] is Scenedesmus acutus. As to the kind of experiment: Peroxidizing phytotoxicity against Scenedesmus acutus assessed as ethane production after 20 hr. It is filed as functional, organism-based.
In experiment [2] the test system is Scenedesmus acutus. As to the kind of experiment: Phytotoxicity against Scenedesmus acutus assessed as reduction in chlorophyll content by spectroscopy. The format is functional, organism-based.
In experiment [3] the test system is Scenedesmus acutus. As to the kind of experiment: Growth inhibition of Scenedesmus acutus assessed as changes in packed cell volume. It is filed as functional, organism-based.
The target in experiment [4] is T1, Protoporphyrinogen IX oxidase (Zea mays, UniProt Q9FYV8).
T1 sequence (Q9FYV8 whole entry): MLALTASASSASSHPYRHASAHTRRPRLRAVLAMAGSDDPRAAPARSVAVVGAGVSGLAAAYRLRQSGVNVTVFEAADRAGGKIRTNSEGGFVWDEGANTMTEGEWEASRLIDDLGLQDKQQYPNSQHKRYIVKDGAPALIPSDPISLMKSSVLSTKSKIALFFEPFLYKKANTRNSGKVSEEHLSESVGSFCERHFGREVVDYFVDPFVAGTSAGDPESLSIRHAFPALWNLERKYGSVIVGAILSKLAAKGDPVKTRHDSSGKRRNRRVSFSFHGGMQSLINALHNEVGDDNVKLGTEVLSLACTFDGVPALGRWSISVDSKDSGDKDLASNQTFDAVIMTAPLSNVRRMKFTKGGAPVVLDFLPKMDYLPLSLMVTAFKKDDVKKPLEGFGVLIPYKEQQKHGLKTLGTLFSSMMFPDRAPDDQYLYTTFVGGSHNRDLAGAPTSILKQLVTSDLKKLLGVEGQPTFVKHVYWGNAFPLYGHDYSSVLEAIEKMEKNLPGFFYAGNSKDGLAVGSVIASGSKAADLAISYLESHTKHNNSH
The experiment in a line: Inhibition of protoporphyrinogen IX oxidase in Zea mays cv. Anjou (maize) seedlings homogenates assessed as protoporphyrinogen IX formation by spectrophotometry.

For the compound `C#CCOc1cc(N2C(=O)C3=C(CCCC3)C2=O)ccc1Cl`, the figures for the IC50 in experiment [1], in experiment [2] and in experiment [3] were 537 nM, 79.4 nM and 100 nM, respectively.

`C#CCOc1cc(N2C(=O)C3=C(CCCC3)C2=O)c(F)cc1Cl`: the IC50 is 141 nM in experiment [1], 15.8 nM in experiment [2], 1.82 nM in experiment [4] and 15.8 nM in experiment [3].

With `O=C1C2=C(CCCC2)C(=O)N1c1ccc(Cl)cc1F`, the IC50 in experiment [1] was 240 nM; in experiment [2] it was 24.5 nM; in experiment [4] it was 3.72 nM; in experiment [3] it was 37.2 nM.

In the case of `O=C(O)c1cc(N2C(=O)C3=C(CCCC3)C2=O)c(F)cc1Cl`, the IC50 in experiment [1] was 3160 nM; in experiment [2] it was 759 nM; in experiment [4], 380 nM; in experiment [3], 1000 nM.

On to `COC(=O)c1cc(N2C(=O)C3=C(CCCC3)C2=O)c(F)cc1Cl`, for which the IC50 in experiment [1] is 170 nM; in experiment [2] it was 110 nM; in experiment [4] it was 11.2 nM; in experiment [3], 67.6 nM.

For `CCOC(=O)c1cc(N2C(=O)C3=C(CCCC3)C2=O)c(F)cc1Cl`, the IC50 in experiment [1] was 87.1 nM; in experiment [2], 100 nM; in experiment [4], 4.17 nM; in experiment [3], 57.5 nM.

With `CCCOC(=O)c1cc(N2C(=O)C3=C(CCCC3)C2=O)c(F)cc1Cl`, the IC50 in experiment [1] was 66.1 nM; in experiment [2], 89.1 nM; in experiment [4], 3.89 nM; in experiment [3], 33.1 nM.

Regarding `CC(C)OC(=O)c1cc(N2C(=O)C3=C(CCCC3)C2=O)c(F)cc1Cl`, the IC50 was 89.1 nM in experiment [1], 57.5 nM in experiment [2], 1.38 nM in experiment [4] and 13.8 nM in experiment [3].

For the compound `CCCCOC(=O)c1cc(N2C(=O)C3=C(CCCC3)C2=O)c(F)cc1Cl`, the IC50 in experiment [1] was 141 nM; in experiment [2], 67.6 nM; in experiment [4], 8.91 nM; in experiment [3] it was 126 nM.

Regarding `CC(C)COC(=O)c1cc(N2C(=O)C3=C(CCCC3)C2=O)c(F)cc1Cl`, the IC50 in experiment [1] is 407 nM; in experiment [2] it was 33.1 nM; in experiment [4] it was 4.9 nM; in experiment [3], 100 nM.

Consider `CCC(C)OC(=O)c1cc(N2C(=O)C3=C(CCCC3)C2=O)c(F)cc1Cl` (configuration not stated), for which the IC50 in experiment [1] was 74.1 nM; in experiment [2], 24.5 nM; in experiment [4] it was 2.63 nM; in experiment [3], 60.3 nM.

Regarding `O=C(O)c1cc(N2C(=O)C3=C(CCCC3)C2=O)ccc1Cl`, the IC50 in experiment [1] is more than 100000 nM; in experiment [2] it was more than 100000 nM; in experiment [4], 1860 nM; in experiment [3] it was more than 100000 nM.

Take `COC(=O)c1cc(N2C(=O)C3=C(CCCC3)C2=O)ccc1Cl`: the IC50 in experiment [1] was 1620 nM; in experiment [2], 2000 nM; in experiment [4], 8.91 nM; in experiment [3] it was 1780 nM.

With `CCOC(=O)c1cc(N2C(=O)C3=C(CCCC3)C2=O)ccc1Cl`, the IC50 in experiment [1] is 2140 nM; in experiment [2], 1380 nM; in experiment [4], 3.72 nM; in experiment [3], 1910 nM.

Regarding `CCCOC(=O)c1cc(N2C(=O)C3=C(CCCC3)C2=O)ccc1Cl`, the IC50 in experiment [1] is 661 nM; in experiment [2] it was 1860 nM; in experiment [4], 2.19 nM; in experiment [3], 1120 nM.

Consider `CC(C)OC(=O)c1cc(N2C(=O)C3=C(CCCC3)C2=O)ccc1Cl`, for which the IC50 in experiment [1] was 182 nM; in experiment [2], 1000 nM; in experiment [3], 1230 nM.

Take `CCCCOC(=O)c1cc(N2C(=O)C3=C(CCCC3)C2=O)ccc1Cl`: the IC50 in experiment [1] was 7760 nM; in experiment [2], 3550 nM; in experiment [4] it was 9.12 nM; in experiment [3], 6310 nM.

Turning to `CC(C)COC(=O)c1cc(N2C(=O)C3=C(CCCC3)C2=O)ccc1Cl`, the IC50 in experiment [1] was 15500 nM; in experiment [2], 759 nM; in experiment [4] it was 4.79 nM; in experiment [3], 977 nM.

Turning to `CCC(C)OC(=O)c1cc(N2C(=O)C3=C(CCCC3)C2=O)ccc1Cl` (configuration not stated), the IC50 is 9770 nM in experiment [1], 794 nM in experiment [2], 2.51 nM in experiment [4] and 1100 nM in experiment [3].

Take `CC(C)(C)OC(=O)c1cc(N2C(=O)C3=C(CCCC3)C2=O)ccc1Cl`: the IC50 was more than 100000 nM in experiment [1], 12900 nM in experiment [2], 28.2 nM in experiment [4] and 81300 nM in experiment [3].

Turning to `CCCCCOC(=O)c1cc(N2C(=O)C3=C(CCCC3)C2=O)ccc1Cl`, the IC50 is 5370 nM in experiment [1], 9330 nM in experiment [2], 7.59 nM in experiment [4] and 4470 nM in experiment [3].

For the compound `CCCCCCCCOC(=O)c1cc(N2C(=O)C3=C(CCCC3)C2=O)ccc1Cl`, the IC50 in experiment [1] is more than 100000 nM; in experiment [2], more than 100000 nM; in experiment [4] it was 25.1 nM; in experiment [3] it was more than 100000 nM.

In the case of `COC(=O)c1cc(Oc2ccc(C(F)(F)F)cc2Cl)ccc1[N+](=O)[O-]` [ACIFLUORFEN-METHYL], the IC50 is 23.4 nM in experiment [1], 61.7 nM in experiment [2], 2.19 nM in experiment [4] and 70.8 nM in experiment [3].

As to `O=C(O)c1cc(Oc2ccc(C(F)(F)F)cc2Cl)ccc1[N+](=O)[O-]` [ACIFLUORFEN], the IC50 in experiment [1] was 1020 nM; in experiment [2] it was 1860 nM; in experiment [4], 200 nM; in experiment [3], 5750 nM.

Regarding `O=C1C2=C(CCCC2)C(=O)N1c1ccc(Cl)cc1` [CHLOROPHTHALIUM], the IC50 in experiment [1] was 912 nM; in experiment [2] it was 79.4 nM; in experiment [3] it was 100 nM.
